Test results published in patent publication US10294202B2, “Pyrrolidinones as herbicides” (FMC Corporation, priority 2013, dated 2019).

Experiments:
ragweed = experiment: Test A pre-/postemergence herbicide test; type: in vivo, Ambrosia elatior; conditions: for Plant response rating, Ragweed: 0 to 100 scale
Text: (§1) Seeds of plant species selected from bamyardgrass (Echinochloa crus-galli), kochia (Kochia scoparia), ragweed (common ragweed, Ambrosia elatior), ryegrass, Italian (Italian ryegrass, Lolium multiflorum), crabgrass, large (large crabgrass Digitaria sanguinalis), giant foxtail (Setaria faberii), morningglory (Ipomoea spp.), pigweed (Amaranthus retroflexus), velvetleaf (Abutilon theophrasti), wheat (Triticum aestivum), and corn (Zea mays) were planted into a blend of loam soil and sand and treated preemergence with a directed soil spray using test chemicals formulated in a non-phytotoxic solvent mixture which included a surfactant. At the same time, plants selected from these crop and weed species and also blackgrass (Alopecurus myosuroides), and galium (catchweed bedstraw, Galium aparine) were planted in pots containing the same blend of loam soil and sand and treated with postemergence applications of test chemicals formulated in the same manner. Plants ranged in height from 2 to 10 cm and were in the one- to two-leaf stage for the postemergence treatment. Treated plants and untreated controls were maintained in a greenhouse for approximately 10 days, after which time all treated plants were compared to untreated controls and visually evaluated for injury. Plant response ratings, summarized in Table A, are based on a 0 to 100 scale where 0 is no effect and 100 is complete control. A dash (-) response means no test result.

ryegrass, Italian = experiment: Test A pre-/postemergence herbicide test; type: in vivo, Lolium multiflorum; conditions: for Plant response rating, Ryegrass, Italian: 0 to 100 scale
Text: as §1

pigweed = experiment: Test A pre-/postemergence herbicide test; type: in vivo, Amaranthus retroflexus; conditions: for Plant response rating, Pigweed: 0 to 100 scale
In short: (§2)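 Planted in loam–sand blend; treated the same day preemergence by directed soil spray, while separately grown plants at one- to two-leaf stage got postemergence spray. Compared visually with untreated controls after approximately 10 days; 100 means complete control.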

wheat = experiment: Test A pre-/postemergence herbicide test; type: in vivo, Triticum aestivum; conditions: Postemergence; for Plant response rating, Wheat: 125 g ai/ha, 0 to 100 scale, 0 is no effect, 100 is complete control; for Wheat plant response rating (0 to 100 scale, 0 is no effect, 100 is complete control): 500 g ai/ha
In short: as §2

kochia = experiment: Test A pre-/postemergence herbicide test; type: in vivo, Kochia scoparia; conditions: for Plant response rating, Kochia: 0 to 100 scale
Text: as §1

galium = experiment: Test A postemergence herbicide test; type: in vivo, Galium aparine; conditions: for Plant response rating, Galium: 125 g ai/ha, 0 to 100 scale, 0 is no effect, 100 is complete control; for Galium plant response rating (0 to 100 scale, 0 is no effect, 100 is complete control): 500 g ai/ha
Text: (§3) At the same time, plants selected from these crop and weed species and also blackgrass (Alopecurus myosuroides), and galium (catchweed bedstraw, Galium aparine) were planted in pots containing the same blend of loam soil and sand and treated with postemergence applications of test chemicals formulated in the same manner. Plants ranged in height from 2 to 10 cm and were in the one- to two-leaf stage for the postemergence treatment. Treated plants and untreated controls were maintained in a greenhouse for approximately 10 days, after which time all treated plants were compared to untreated controls and visually evaluated for injury. Plant response ratings, summarized in Table A, are based on a 0 to 100 scale where 0 is no effect and 100 is complete control. A dash (-) response means no test result.

corn = experiment: Test A pre-/postemergence herbicide test; type: in vivo, Zea mays; conditions: Postemergence; for Plant response rating, Corn: 125 g ai/ha, 0 to 100 scale, 0 is no effect, 100 is complete control; for Corn plant response rating (0 to 100 scale, 0 is no effect, 100 is complete control): 500 g ai/ha
In short: as §2

barnyardgrass = experiment: Test A pre-/postemergence herbicide test; type: in vivo, Echinochloa crus-galli; conditions: for Plant response rating, Barnyardgrass: 0 to 100 scale
In short: as §2

giant foxtail = experiment: Test A pre-/postemergence herbicide test; type: in vivo, Setaria faberii; conditions: for Plant response rating, Foxtail, Giant: 0 to 100 scale
In short: as §2

blackgrass = experiment: Test A postemergence herbicide test; type: in vivo, Alopecurus myosuroides; conditions: for Plant response rating, Blackgrass: 125 g ai/ha, 0 to 100 scale, 0 is no effect, 100 is complete control; for Blackgrass plant response rating (0 to 100 scale, 0 is no effect, 100 is complete control): 500 g ai/ha
Text: as §3

[1] = 125 g ai/ha, visual rating, 0 no effect, 100 complete control, approximately 10 days, preemergence
[2] = Postemergence, 125 g ai/ha, 0 is no effect, 100 is complete control
[3] = preemergence, 500 g ai/ha, 0 is no effect and 100 is complete control

Compound | Plant response rating, Ragweed (ragweed; [1]) | Plant response rating, Ragweed (ragweed; [2]) | Ragweed plant response rating (0 to 100 scale, 0 is no effect, 100 is complete control) (ragweed; Postemergence, 500 g ai/ha) | Plant response rating, Ragweed (ragweed; [3]) | Plant response rating, Ryegrass, Italian (ryegrass, Italian; [1]) | Plant response rating, Ryegrass, Italian (ryegrass, Italian; [2]) | Ryegrass, Italian plant response rating (0 to 100 scale, 0 is no effect, 100 is complete control) (ryegrass, Italian; Postemergence, 500 g ai/ha) | Plant response rating, Ryegrass, Italian (ryegrass, Italian; [3]) | Plant response rating, Pigweed (pigweed; [1]) | Plant response rating, Pigweed (pigweed; [2]) | Pigweed plant response rating (0 to 100 scale, 0 is no effect, 100 is complete control) (pigweed; Postemergence, 500 g ai/ha) | Plant response rating, Pigweed (pigweed; [3]) | Plant response rating, Wheat (wheat) | Wheat plant response rating (0 to 100 scale, 0 is no effect, 100 is complete control) (wheat) | Plant response rating, Kochia (kochia; [1]) | Plant response rating, Kochia (kochia; [2]) | Kochia plant response rating (0 to 100 scale, 0 is no effect, 100 is complete control) (kochia; Postemergence, 500 g ai/ha) | Plant response rating, Kochia (kochia; [3]) | Plant response rating, Galium (galium) | Galium plant response rating (0 to 100 scale, 0 is no effect, 100 is complete control) (galium) | further results
Cc1cccc(NC(=O)C2C(=O)NCC2c2cccc(C(F)(F)F)c2)c1F (racemic) [Compound 184] | 0 | 0 | 0 | 0 | 0 | 0 | 20 | 0 | 0 | 0 | 0 | 0 | 0 | 40 | 0 | 0 | 0 | 20 | 0 | 20 | Plant response rating, Corn (corn): 0; Corn plant response rating (0 to 100 scale, 0 is no effect, 100 is complete control) (corn): 20; Plant response rating, Barnyardgrass (barnyardgrass; [1]): 70; Plant response rating, Barnyardgrass (barnyardgrass; [2]): 70; Barnyardgrass plant response rating (0 to 100 scale, 0 is no effect, 100 is complete control) (barnyardgrass; Postemergence, 500 g ai/ha): 80; Plant response rating, Barnyardgrass (barnyardgrass; [3]): 90; Plant response rating, Foxtail, Giant (giant foxtail; [1]): 90; Plant response rating, Foxtail, Giant (giant foxtail; [2]): 70; Foxtail, Giant plant response rating (0 to 100 scale, 0 is no effect, 100 is complete control) (giant foxtail; Postemergence, 500 g ai/ha): 80; Plant response rating, Foxtail, Giant (giant foxtail; [3]): 90; Plant response rating, Blackgrass (blackgrass): 0; Blackgrass plant response rating (0 to 100 scale, 0 is no effect, 100 is complete control) (blackgrass): 20
Cc1ccc(NC(=O)C2C(=O)NCC2c2cccc(C(F)(F)F)c2)cc1C(F)(F)F (racemic) [Compound 186] | 0 | 0 | 0 | 0 | 0 | 0 | 0 | 0 | 0 | 0 | 0 | 0 | 0 | 0 | 0 | 0 | 0 | 0 | 0 | 0 | Plant response rating, Corn (corn): 0; Corn plant response rating (0 to 100 scale, 0 is no effect, 100 is complete control) (corn): 0; Plant response rating, Barnyardgrass (barnyardgrass; [1]): 0; Plant response rating, Barnyardgrass (barnyardgrass; [2]): 0; Barnyardgrass plant response rating (0 to 100 scale, 0 is no effect, 100 is complete control) (barnyardgrass; Postemergence, 500 g ai/ha): 0; Plant response rating, Barnyardgrass (barnyardgrass; [3]): 0; Plant response rating, Foxtail, Giant (giant foxtail; [1]): 0; Plant response rating, Foxtail, Giant (giant foxtail; [2]): 0; Foxtail, Giant plant response rating (0 to 100 scale, 0 is no effect, 100 is complete control) (giant foxtail; Postemergence, 500 g ai/ha): 0; Plant response rating, Foxtail, Giant (giant foxtail; [3]): 0; Plant response rating, Blackgrass (blackgrass): 0; Blackgrass plant response rating (0 to 100 scale, 0 is no effect, 100 is complete control) (blackgrass): 0
